Consider 3 compounds from PMC5698726, “Allosteric Tuning of Caspase‐7: A Fragment‐Based Drug Discovery Approach” (Angewandte Chemie (International Ed. in English), 2017).

Assay [1] concerns the target T1, caspase-7 (C7) (Homo sapiens, UniProt P55210).
T1 construct: gene CASP7; mature (processed, active) caspase-7, dimer, 6xHis tag; expression details only in supplement
T1 sequence (P55210 24-198): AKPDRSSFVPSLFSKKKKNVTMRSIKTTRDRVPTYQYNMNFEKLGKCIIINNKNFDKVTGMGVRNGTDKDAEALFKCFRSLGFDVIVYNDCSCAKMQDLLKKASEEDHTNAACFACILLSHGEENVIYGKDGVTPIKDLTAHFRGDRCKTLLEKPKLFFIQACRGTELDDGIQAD
T1 sequence (P55210 207-303): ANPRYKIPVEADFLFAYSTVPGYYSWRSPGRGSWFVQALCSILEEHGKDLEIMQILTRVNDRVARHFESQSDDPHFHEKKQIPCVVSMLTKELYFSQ
Description: SPR OneStep injection, His-captured protein, […] fit. It counts as binding. The settings on record: read-out: Dissociation constant.

Assay [2] concerns the target T1, caspase-7 (C7). Description: fluorogenic Ac-DEVD-AFC cleavage assay. It counts as biochemical.
In assay [3] the target is T1, caspase-7 (C7). Description: steady-state kinetics, Ac-DEVD-AFC cleavage. It counts as biochemical.

Take `CC(=O)c1ccccc1Sc1ccccc1C(=O)O` [compound 1, 1]: the Kd on caspase-7 (C7) [1] worked out at 8 ± 3 mM. Besides, 3.98 ± 0.00105 mM corresponded to half-maximal inhibition against caspase-7 (C7) [2] (IC50). The compound further displayed a Ki on caspase-7 (C7) [3] of 5.47 ± 0.398 mM.
For `O=C(O)C1c2ccccc2Oc2ccccc21` [compound 2, 2] the same measures were 4.09 ± 0.3 mM, 8.52 ± 0.0012 mM and 4.32 ± 0.194 mM.
For `O=C(O)Cc1ccccc1Sc1ccccc1` [compound 6, 6], the IC50 at caspase-7 (C7) [2] is 0.637 ± 0.00104 mM. This compound displayed a Ki on caspase-7 (C7) [3] of 0.667 ± 0.0319 mM.

Broadly, the IC50 is the concentration that inhibits the measured activity by half. Read a high IC50 as weaker potency in that assay. By Ki is commonly meant the dissociation constant of the complex between target and ligand, obtained from inhibition or displacement. Low values mean a stronger hold on the target, high ones a looser hold on the target.
